# From US20220388962A1 (Biohaven Therapeutics Ltd., priority 2019, published 2022)
# Where a name gives a salt, the structure may show the parent alone.
# Target: TDP-43 (Homo sapiens, UniProt Q13148)
# Assay: TDP-43-DNA alpha-screen assay (bt-TAR-32 displacement)
# Type: binding
# Conditions: for IC50: bt-TAR-32 0.125 nM, 15 ng/ml TDP-43
# Procedure: Alpha-screen assay: Displacement of bt-TG6 binding was measured using AlphaScreen technology as previously described (Cassel, J. A. et al., Journal of Biomolecular Screening, 2010, 15, 1099-1106; Cassel, J. A.; Reitz, A. B. et al. The effects of small molecule inhibitors of nucleic acid binding to TDP-43 on TDP-43 metabolism and function. Biochimie, 2012, 94, 1974-1981).
# Test compounds were diluted in assay buffer (25 mM Tris [pH 7.4], 0.1% bovine serum albumin [BSA], 0.1% Triton X-100) at 4× the desired final concentration. Dilutions of test compound (50 to 0.02 μM in half-log dilutions with a no compound control well) were pre-incubated with TDP-43 (5 μl of 60 ng/mL) pre-bound to AlphaScreen® anti-GST acceptor beads (5 μl of 40 μg/mL) in 15 μl volume for 30 minutes at 23° C. with shaking. Assays were initiated by the addition of 5 μl bt-TAR-32 (5′-CTGCTTTTTGCCTGTACTGGGTCTCTGTGGTT-3′) 0.5 nM pre-bound to AlphaScreen® strepavidin donor beads (40 μg/mL). After incubation in the dark at 23° C. for 90 minutes with shaking, the AlphaScreen® signal was measured on a Synergy 2 plate reader (BioTek, Winooski, Vt.). IC50 values were determined from nonlinear regression fits of the data to a Sigmoidal dose response variable slope model in GraphPad Prism. Final assay conditions are 25 mM Tris [pH 7.4], 0.1% bovine serum albumin [BSA], 0.100 Triton X-100, 15 ng/ml TDP-43, 0.125 nM bTAR32, 10 ug/ml […].
# Chain of TDP-43 (Q13148 whole entry): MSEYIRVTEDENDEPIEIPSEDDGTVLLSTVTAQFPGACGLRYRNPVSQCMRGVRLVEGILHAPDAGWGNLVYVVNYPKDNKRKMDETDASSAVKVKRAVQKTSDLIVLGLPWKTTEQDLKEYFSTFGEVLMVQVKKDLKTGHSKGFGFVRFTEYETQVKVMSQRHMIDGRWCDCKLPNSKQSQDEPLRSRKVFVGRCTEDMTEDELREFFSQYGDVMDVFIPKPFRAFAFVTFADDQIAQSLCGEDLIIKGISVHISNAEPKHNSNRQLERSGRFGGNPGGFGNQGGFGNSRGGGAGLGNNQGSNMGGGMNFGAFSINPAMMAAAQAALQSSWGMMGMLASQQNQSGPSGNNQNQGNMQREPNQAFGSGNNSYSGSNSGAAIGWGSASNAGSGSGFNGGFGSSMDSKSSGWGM
IC50 [nM],"increase in potency versus (XXVIII), average (side-by-side, three independent assays, bt-TAR32, average) [×]","increase in potency versus (XXVIII) (side-by-side, three independent assays, bt-TAR32, range)",Structure (SMILES)
280,–,–,"COc1ccc(-c2cc(NCCCN(C)CCCN(C)C)c3ccccc3n2)cc1 [Example 1, N^1-(3-((2-(4-Methoxyphenyl)quinolin-4-yl)amino)propyl)-N^1,N^3,N^3-trimethyl propane-1,3-diamine]"
110,–,–,"CNCCCN(C)CCCNc1cc(-c2ccc(OC)cc2)nc2ccccc12 [Example 2, 2-(4-Methoxyphenyl)-N-(3-{methyl[3-(methylamino)propyl]-amino}propyl) quinolin-4-amine]"
80,14,11-18 ×,"COc1ccc(-c2cc(NCCCN(C)CCCN)c3ccccc3n2)cc1 [Example 3, N^1-(3-Aminopropyl)-N^3-(2-(4-methoxyphenyl)quinolin-4-yl)-N^1-methylpropane-1,3-diamine]"
220,–,–,"COc1ccc(-c2cc(NCCCNCCCN3CCCCC3)c3ccccc3n2)cc1 [Example 4, N^1-(2-(4-Methoxyphenyl)quinolin-4-yl)-N^3-(3-(piperidin-1-yl)propyl) propane-1,3-diamine trihydrochloride]"
240,–,–,"COc1ccc(-c2cc(NCCCN(C)CCCN3CCCCC3)c3ccccc3n2)cc1 [Example 5, N^1-(2-(4-methoxyphenyl)quinolin-4-yl)-N^3-methyl-N^3-(3-(piperidin-1-yl)propyl)propane-1,3-diamine trihydrochloride]"
760,–,–,"COc1ccc(-c2cc(NCCCNCCCNC(=O)OC(C)(C)C)c3ccccc3n2)cc1 [Example 6, tert-Butyl N-{3-[(3-{[2-(4-methoxyphenyl)quinolin-4yl]amino}propyl)amino]propyl}carbamate]"
220,–,–,"COc1ccc(-c2cc(NCCCN(C)CCCN)c3c(F)cccc3n2)cc1 [Example 7, N^1-(3-aminopropyl)-N^3-(5-fluoro-2-(4-methoxyphenyl)quinolin-4-yl)-N^1-methyl propane-1,3-diamine]"
80,–,–,"COc1ccc(-c2cc(NCCCNCCCN)c3ccccc3n2)cc1 [Example 8, N-{3-[(3-Aminopropyl)amino]propyl}-2-(4-methoxyphenyl)quinolin-4-amine trihydrochloride]"
50,–,–,"COc1ccc(-c2cc(NCCCN(C)CCCN)c3cc(OC)ccc3n2)cc1 [Example 9, N^1-(3-Aminopropyl)-N^3-(6-methoxy-2-(4-methoxyphenyl)quinolin-4-yl)-N^1-methylpropane-1,3-diamine]"
650,–,–,"COc1ccc(-c2cc(NCCCN(C)CCCN)c3ccccc3n2)c(C)c1 [Example 10, N^1-(3-Aminopropyl)-N^3-(2-(2-methyl-4-methoxyphenyl)quinolin-4-yl)-N^1-methylpropane-1,3-diamine]"
80,–,–,"CNCCCCN(C)CCCNc1cc(-c2ccc(OC)cc2)nc2ccccc12 [Example 12, N^1-(3-((2-(4-Methoxyphenyl)quinolin-4-yl)amino)propyl)-N^1,N^4-dimethyl butane-1,4-diamine trihydrochloride]"
330,–,–,"COc1ccc(-c2cc(NCCCN(C)CCCN(C)CCF)c3ccccc3n2)cc1 [Example 13, N^1-(2-fluoroethyl)-N^3-(3-((2-(4-methoxyphenyl)quinolin-4-yl)amino)propyl)-N^1,N^3-dimethylpropane-1,3-diamine]"
900,–,–,"COc1ccc(-c2cc(NCCCNCCCO)c3ccccc3n2)cc1 [Example 14, 3-((3-((2-(4-Methoxyphenyl)quinolin-4-yl)amino)propyl)amino)-propan-1-ol]"
800,–,–,"COCCCNCCCNc1cc(-c2ccc(OC)cc2)nc2ccccc12 [Example 15, N-(3-(3-methoxypropylamino)propyl)-2-(4-methoxyphenyl)quinolin-4-amine]"
1420,–,–,"COc1ccc(-c2cc(NCCCN(CCCN)C(C)=O)c3ccccc3n2)cc1 [Example 16, N-(3-(2-(4-Methoxyphenyl)quinolin-4-ylamino)propyl)-N-(3-aminopropyl) acetamide]"
180,–,–,"COc1ccc(-c2cc(NCCCN(CCCN(C)C)CC3CC3)c3ccccc3n2)cc1 [Example 17, N^1-(Cyclopropylmethyl)-N^1-(3-((2-(4-methoxyphenyl)quinolin-4-yl)amino)propyl)-N^3,N^3-dimethylpropane-1,3-diamine]"
1410,–,–,"COc1ccc(-c2cc(NCCCN(CCCN(C)C)CC3CN(C(=O)OC(C)(C)C)C3)c3ccccc3n2)cc1 [Example 18, tert-Butyl 3-(((3-(dimethylamino)propyl)(3-((2-(4-methoxyphenyl)quinolin-4-yl)amino)propyl)amino)methyl)azetidine-1-carboxylate]"
950,–,–,"COc1ccc(-c2cc(NCCCN(CCCN(C)C)CC3CCN(C(=O)OC(C)(C)C)CC3)c3ccccc3n2)cc1 [Example 19, tert-Butyl 4-(((3-(dimethylamino)propyl)(3-((2-(4-methoxyphenyl)quinolin-4-yl)amino)propyl)amino)methyl)piperidine-1-carboxylate]"
130,–,–,"COc1ccc(-c2cc(NCCCN(CCCN(C)C)CC3CNC3)c3ccccc3n2)cc1 [Example 20, N^1-(Azetidin-3-ylmethyl)-N^1-(3-((2-(4-methoxyphenyl)quinolin-4-yl)amino)propyl)-N^3,N^3-dimethylpropane-1,3-diamine]"
120,–,–,"COc1ccc(-c2cc(NCCCN(CCCN(C)C)CC3CCNCC3)c3ccccc3n2)cc1 [Example 21, N^1-(3-((2-(4-Methoxyphenyl)quinolin-4-yl)amino)propyl)-N^3,N^3-dimethyl-N^1-(piperidin-4-ylmethyl)propane-1,3-diamine]"
680,–,–,"COc1ccc(-c2cc(NCCCNCc3cncn3C)c3ccccc3n2)cc1 [Example 22, N^1-(2-(4-Methoxyphenyl)quinolin-4-yl)-N^3-((1-methyl-1H-imidazol-5-yl)methyl)propane-1,3-diamine]"
240,–,–,"COc1ccc(-c2cc(NCCCN3CC4CNCC4C3)c3ccccc3n2)cc1 (centres unmarked) [Example 23, N-(3-(Hexahydropyrrolo[3,4-c]pyrrol-2(1H)-yl)propyl)-2-(4-methoxyphenyl) quinolin-4-amine]"
1110,–,–,"COc1ccc(-c2cc(NCCCN(C)Cc3ccc(N)nc3)c3ccccc3n2)cc1 [Example 24, N^1-((6-Aminopyridin-3-yl)methyl)-N^3-(2-(4-methoxyphenyl)-quinolin-4-yl)-N^1-methylpropane-1,3-diamine]"
220,–,–,"COc1ccc(-c2cc(NCCCN(C)CC(O)CN(C)C)c3ccccc3n2)cc1 (centres unmarked) [Example 25, 1-(Dimethylamino)-3-((3-((2-(4-methoxyphenyl)quinolin-4-yl)-amino)propyl)(methyl)amino)propan-2-ol]"
150,–,–,"COc1ccc(-c2cc(NCCCN(C)CCCN3CCC(O)CC3)c3ccccc3n2)cc1 [Example 26, 1-(3-((3-((2-(4-Methoxyphenyl)quinolin-4-yl)amino)propyl)-methylamino)propyl) piperidin-4-ol]"
2080,–,–,"COc1ccc(-c2cc(NCCCN3CC4CN(C(=O)OC(C)(C)C)CC4C3)c3ccccc3n2)cc1 (centres unmarked) [Example 27, tert-butyl 5-(3-((2-(4-methoxyphenyl)quinolin-4-yl)amino)propyl)hexahydro-pyrrolo[3,4-c]pyrrole-2(1H)-carboxylate]"
1210,–,–,"COc1ccc(-c2cc(NCCCN(C)Cc3ccc(N(C)C)nc3)c3ccccc3n2)cc1 [Example 28, N^1-((6-(dimethylamino)pyridin-3-yl)methyl)-N^3-(2-(4-methoxyphenyl)quinolin-4-yl)-N^1-methylpropane-1,3-diamine]"
